Counter-ions that a name gives are not always drawn.
How the values were obtained:
[1] = tested on: Target C; assay: HiBiT protein abundance assay, Target C (K562 HiBiT knock-in); type: cell-based, human; conditions: HiBiT knock-in K562 cells, 24 hours, top dose 10 μM
In short: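 K562 HiBiT knock-in cells (10000/well) were treated 24 h at 37° C with a 10-point 3-fold dilution series (top 10 μM final, ≤0.25% DMSO). HiBiT luminescence was read after lytic LgBiT detection. Percent response used unmodified K562 and DMSO-treated knock-in controls, and IC50 came from a four-parameter fit at 50% of untreated.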

[2] = tested on: Target C; assay: RT-qPCR canonical junction panel assay, Target C mRNA; type: cell-based; conditions: Table 4, read-out: Target C IC50 (decrease in CJ mRNA levels)
In short: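 IC50 is the concentration giving 50% CJ decrease, from a 4-parameter logistic fit of percent response; response derived from ΔΔCt against housekeeper and DMSO over a fixed ΔCt window, with canonical exon-junction qPCR in compound-treated K562 or A673 cells.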

[3] = tested on: HTT; assay: HiBiT protein abundance assay, HTT (K562 HiBiT knock-in); type: cell-based, human; conditions: HiBiT knock-in K562 cells, 24 hours, top dose 10 μM
In short: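 Steps: seed HiBiT knock-in K562 cells; add compound in 10-point 3-fold series from 10 μM final; incubate 24 h, 37 °C; add lytic HiBiT reagent, shake 5 min, wait 10 min; read luminescence. Normalize to parental K562 and DMSO controls, fit 4PL, take IC50.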

SMILES	IC50 [1]	IC50 [2]	IC50 [3]
C[C@@H]1CN(c2ccc3nc(-c4cc5cn(C)nc5c(F)c4O)nc(C(N)=O)c3c2)C[C@H](C)N1 [Compound 712, 6-[(3R,5S)-3,5-dimethylpiperazin-1-yl]-2-(7-fluoro-6-hydroxy-2-methylindazol-5-yl) quinazoline-4-carboxamide]	1 to 10 µM	> 10 µM	0.1 to 1 µM
CC(=O)c1nc(-c2cc3cn(C)nc3c(F)c2O)nc2ccc(N3C[C@@H](C)N[C@@H](C)C3)cc12 [Compound 717, 1-{6-[(3R,5S)-3,5-dimethylpiperazin-1-yl]-2-(7-fluoro-6-hydroxy-2-methylindazol-5-yl)quinazolin-4-yl}ethanone]	0.1 to 1 µM	0.1 to 1 µM	0.1 to 1 µM
CNC(=O)c1nc(-c2cc3cn(C)nc3c(F)c2O)nc2ccc(N3CCC(N4CCC4)CC3)cc12 [Compound 722, 6-[4-(azetidin-1-yl)piperidin-1-yl]-2-(7-fluoro-6-hydroxy-2-methylindazol-5-yl)-N-methylquinazoline-4-carboxamide]	0.1 to 1 µM	0.1 to 1 µM	< 0.1 µM
Cc1cc(N2C[C@@H](C)N[C@@H](C)C2)cc2c(Cl)cc(-c3cc4cn(C)nc4c(F)c3O)nc12 [Compound 723, 5-{4-chloro-6-[(3R,5S)-3,5-dimethylpiperazin-1-yl]-8-methylquinolin-2-yl}-7-fluoro-2-methylindazol-6-ol]	< 0.1 µM	0.1 to 1 µM	< 0.1 µM
CNC(=O)c1nc(-c2cc3cn(C)nc3c(F)c2O)nc2ccc(N3CCNC4(CC4)C3)cc12 [Compound 728, 6-{4,7-diazaspiro[2.5]octan-7-yl}-2-(7-fluoro-6-hydroxy-2-methylindazol-5-yl)-N-methylquinazoline-4-carboxamide]	0.1 to 1 µM	1 to 10 µM	0.1 to 1 µM
CNC(=O)c1nc(-c2cc3cn(C)nc3c(F)c2O)nc2ccc(N3CC[C@@H](NC)C3)cc12 [Compound 729, 2-(7-fluoro-6-hydroxy-2-methylindazol-5-yl)-N-methyl-6-[(3R)-3-(methylamino)pyrrolidin-1-yl]quinazoline-4-carboxamide]	< 0.1 µM	< 0.1 µM	< 0.1 µM
C[C@@H]1CN(c2ccc3nc(-c4cc5cn(C)nc5c(F)c4O)nc(-c4nccs4)c3c2)C[C@H](C)N1 [Compound 732, 5-{6-[(3R,5S)-3,5-dimethylpiperazin-1-yl]-4-(1,3-thiazol-2-yl)quinazolin-2-yl}-7-fluoro-2-methylindazol-6-ol]	1 to 10 µM	> 10 µM	1 to 10 µM
C[C@@H]1CN(c2ccc3nc(-c4cc5cn(C)nc5c(F)c4O)nc(C(=O)NCCO)c3c2)C[C@H](C)N1 [Compound 737, 6-[(3R,5S)-3,5-dimethylpiperazin-1-yl]-2-(7-fluoro-6-hydroxy-2-methylindazol-5-yl)-N-(2-hydroxyethyl)quinazoline-4-carboxamide]	1 to 10 µM	1 to 10 µM	1 to 10 µM
CNC(=O)c1nc(-c2cc3cn(C)nc3cc2O)nc2ccc(N3CCC(N(C)C)CC3)cc12 [Compound 742, 6-[4-(dimethylamino)piperidin-1-yl]-2-(6-hydroxy-2-methylindazol-5-yl)-N-methylquinazoline-4-carboxamide]	> 10 µM	> 10 µM	1 to 10 µM
C[C@@H]1CN(c2ccc3nc(-c4cc5cn(C)nc5c(F)c4O)ncc3c2)C[C@H](C)N1 [Compound 743, 5-{6-[(3R,5S)-3,5-dimethylpiperazin-1-yl]quinazolin-2-yl}-7-fluoro-2-methylindazol-6-ol]	1 to 10 µM	1 to 10 µM	1 to 10 µM
C[C@H]1CN(c2ccc3nc(-c4cc5cn(C)nc5c(F)c4O)ncc3c2)C[C@H](C)N1 [Compound 744, 5-{6-[(3S,5S)-3,5-dimethylpiperazin-1-yl]quinazolin-2-yl}-7-fluoro-2-methylindazol-6-ol]	< 0.1 µM	1 to 10 µM	< 0.1 µM
C[C@@H]1CN(c2ccc3nc(-c4cc5cn(C)nc5c(F)c4O)ncc3c2)C[C@@H](C)N1 [Compound 745, 5-{6-[(3R,5R)-3,5-dimethylpiperazin-1-yl]quinazolin-2-yl}-7-fluoro-2-methylindazol-6-ol]	0.1 to 1 µM	1 to 10 µM	0.1 to 1 µM
CN[C@@H]1CCN(c2cc3c(Cl)cc(-c4cc5cn(C)nc5c(C)c4O)nc3cc2C)C1 [Compound 748, 5-{4-chloro-7-methyl-6-[(3R)-3-(methylamino)pyrrolidin-1-yl]quinolin-2-yl}-2,7-dimethylindazol-6-ol]	> 10 µM	> 10 µM	> 10 µM
CN[C@H]1CCN(c2cc3c(Cl)cc(-c4cc5cn(C)nc5c(C)c4O)nc3cc2C)C1 [Compound 749, 5-{4-chloro-7-methyl-6-[(3S)-3-(methylamino)pyrrolidin-1-yl]quinolin-2-yl}-2,7-dimethylindazol-6-ol]	> 10 µM	1 to 10 µM	> 10 µM
Cn1cc2cc(-c3ncc4cc(N5CCC(N6CCC6)CC5)ccc4n3)c(O)c(F)c2n1 [Compound 750, 5-{6-[4-(azetidin-1-yl)piperidin-1-yl]quinazolin-2-yl}-7-fluoro-2-methylindazol-6-ol]	0.1 to 1 µM	0.1 to 1 µM	0.1 to 1 µM
C[C@@H]1CN(c2ccc3nc(-c4cc5cn(C)nc5cc4O)ncc3c2)C[C@H](C)N1 [Compound 751, 5-{6-[(3R,5S)-3,5-dimethylpiperazin-1-yl]quinazolin-2-yl}-2-methylindazol-6-ol hydrochloride]	> 10 µM	> 10 µM	> 10 µM
C[C@H]1CN(c2ccc3nc(-c4cc5cn(C)nc5cc4O)ncc3c2)C[C@H](C)N1 [Compound 752, 5-{6-[(3S,5S)-3,5-dimethylpiperazin-1-yl]quinazolin-2-yl}-2-methylindazol-6-ol]	0.1 to 1 µM	> 10 µM	0.1 to 1 µM
C[C@@H]1CN(c2ccc3nc(-c4cc5cn(C)nc5cc4O)ncc3c2)C[C@@H](C)N1 [Compound 753, 5-{6-[(3R,5R)-3,5-dimethylpiperazin-1-yl]quinazolin-2-yl}-2-methylindazol-6-ol]	0.1 to 1 µM	> 10 µM	0.1 to 1 µM
CCN(CC)C1CCN(c2ccc3nc(-c4cc5cn(C)nc5c(F)c4O)ncc3c2)CC1 [Compound 756, 5-{6-[4-(diethylamino)piperidin-1-yl]quinazolin-2-yl}-7-fluoro-2-methylindazol-6-ol]	0.1 to 1 µM	0.1 to 1 µM	0.1 to 1 µM

— patent US20250092065A1, “2-(INDAZOL-5-YL)-6-(PIPERIDIN-4-YL)-1,7-NAPHTHYRIDINE DERIVATIVES AND RELATED COMPOUNDS AS MODULATORS FOR SPLICING NUCLEIC ACIDS AND FOR THE TREATMENT OF PROLIFERATIVE DISEASES” (REMIX THERAPEUTICS INC., priority 2022, published 2025)
